For one test, the system named is MV4-11 (MLL-AF4). The test is described as follows: LTP assay, CellTiterGlo, T4-T14 (Example 103), MV4-11. The settings on record: for pIC50: Homo sapiens. It is filed as cell-based, human. As to the method: (§1) The day of the experiment (T0) all the cell line suspensions were counted by Cell Viability Analyser, Vi-CELL and properly diluted with fresh medium to obtain the cell density reported in the Test System paragraph.
(§2) Cells were tested after 4 passages after thawing.
(§3) 200 μL/well and 150 μL/well of cell suspension were added into the 0.4 μL/well and 0.3 μL/well compound plates, respectively. • Cell plate containing 200 μL/well suspension was incubated at 37° C. in a humidified incubator with 5% CO2. • From each well of the 150 μL/well cell assay plate, 100 μL were harvested and transferred into a 96-well Optiplate (Perkin Elmer, Cat. n. 6005290) and cell viability was measured as described in 4.3 paragraphs (T0).
(§4) After four days in culture (T4) 150 μL/well of fresh medium were added into a new 0.3 μL/well copy compound plate. • From each well of the 200 μL/well cell assay plate: • 100 μL were sampled for the cell viability measurement as described in 4.3 paragraphs (T4). • 50 μL were harvested and added to the 150 μL/well compound plate prepared as described in the first point to dilute 1:4 the cell suspension. • The cell assay plate diluted and containing 200 μL/well suspension were incubated at 37° C. in a humidified incubator with 5% Co2.
(§5) At T7-T11-T14 it was proceeded as described in T4, with the exception that no further cell dilution was carried out at T14.
(§6) Plates containing the samples to be tested were equilibrated at room temperature for approximately 30 min and then 30 μL/well of the Promega CellTiterGlo® reagent were added.
(§7) Contents will be mixed for 5 min on an orbital shaker to induce cell lysis and then incubated at room temperature for an additional 10 min to stabilize the luminescent signal.
(§8) Luminescence was read by using VictorV (Perkin Elmer) multilabel plate reader using the standard protocol for luminescence in 96 well plate.
(§9) Data were expressed as % of inhibition compared to the 0.2% DMSO negative control, and was calculated as follows: […]
(§10) CRCs were analysed by GraphPad and IC50 values were calculated by non-linear regression using 4 parameter-logistic equation. IC50 (μM) values were reported in the final data table.
(§11) The curve fittings were performed leaving free all the parameters. Any constrain were reported in the results table.

A further test relates to MOLM-13 (MLL-AF9). The test is described as follows: LTP assay, CellTiterGlo, T4-T14 (Example 103), MOLM-13. It counts as cell-based, human. The settings on record: for pIC50: Homo sapiens. The protocol: as §1, §2, §3, §4, §5, §6, §7, §8, §9, §10, §11
In general terms: ATP-based viability assays read luminescence as a measure of living cells.

Another test relates to HL-60. Briefly: LTP assay, CellTiterGlo, T4-T14 (Example 103), HL-60. It is filed as cell-based. The protocol: as §1, §2, §3, §4, §5, §6, §7, §8, §9, §10, §11
The subject of another test is RS4-11 (MLL-AF4). Briefly: LTP assay, CellTiterGlo, T4-T14 (Example 103), RS4-11. It is filed as cell-based. The settings on record: for pIC50: Homo sapiens. The protocol: as §1, §2, §3, §4, §5, §6, §7, §8, §9, §10, §11
The mark [1] stands for this setting: MV4-11, 96 h, MV4-11 (MLL-AF4), T4 (Day 4), read-out: IC50 T4 (Day 4).
Setting [2] is: MV4-11, MV4-11 (MLL-AF4), T7, read-out: IC50 T7.
[3] abbreviates: MV4-11, MV4-11 (MLL-AF4), T11, read-out: IC50 T11.
The mark [4] stands for this setting: MV4-11, MV4-11 (MLL-AF4), T14, read-out: IC50 T14.
The mark [5] stands for this setting: MOLM-13, 96 h, MOLM-13 (MLL-AF9), T4 (Day 4), read-out: IC50 T4 (Day 4).
Where [6] appears, read: MOLM-13, MOLM-13 (MLL-AF9), T7, read-out: IC50 T7.
Setting [7] is: MOLM-13, MOLM-13 (MLL-AF9), T11, read-out: IC50 T11.
[8] abbreviates: MOLM-13, MOLM-13 (MLL-AF9), T14, read-out: IC50 T14.
The mark [9] stands for this setting: Homo sapiens, HL-60, 96 h, HL-60, T4 (Day 4), read-out: IC50 T4 (Day 4).
[10] abbreviates: Homo sapiens, HL-60, HL-60, T7, read-out: IC50 T7.
The mark [11] stands for this setting: Homo sapiens, HL-60, HL-60, T11, read-out: IC50 T11.
The mark [12] stands for this setting: Homo sapiens, HL-60, HL-60, T14, read-out: IC50 T14.
Setting [13] is: RS4-11, 96 h, RS4-11 (MLL-AF4), T4 (Day 4), read-out: IC50 T4 (Day 4).
Setting [14] is: RS4-11, RS4-11 (MLL-AF4), T7, read-out: IC50 T7.
Setting [15] is: RS4-11, RS4-11 (MLL-AF4), T11, read-out: IC50 T11.

pIC50: −log10 of the molar value. Where two headings read alike, the source gives them in different places.

`O=C(Nc1ccc(-c2nc3c(N4CCOCC4)nccc3[nH]2)cc1)Nc1cc(-c2cccnc2)n[nH]1` [Compound 19, 1-{4-[4-(morpholin-4-yl)-1H-imidazo[4,5-c]pyridin-2-yl]phenyl}-3-[3-(pyridin-3-yl)-1Hpyrazol-5-yl]urea]: the negative logarithm of the IC50 (pIC50) in the test with MV4-11 (MLL-AF4) (setting [1]) is 5.89; in the test with MV4-11 (MLL-AF4) (setting [2]), 5.85; with MV4-11 (MLL-AF4) (setting [3]), 7.30; in the test on MV4-11 (MLL-AF4) (setting [4]), 7.10; in the test with MOLM-13 (MLL-AF9) (setting [5]) it was 6.08; in the test with MOLM-13 (MLL-AF9) (setting [6]) it was 6.13. The pIC50 was 6.11 in the test with MOLM-13 (MLL-AF9) (setting [7]); 5.88 with MOLM-13 (MLL-AF9) (setting [8]); 6.06 in the test with HL-60 (HL-60, T7, read-out: IC50 T7); 5.81 with HL-60 (setting [9]); 6.06 with HL-60 (setting [10]); 6.19 in the test on HL-60 (setting [11]). Also, the pIC50 was 6.23 with HL-60 (setting [12]), 5.79 in the test with RS4-11 (MLL-AF4) (setting [13]), 5.81 with RS4-11 (MLL-AF4) (setting [14]) and less than 5.30 in the test with RS4-11 (MLL-AF4) (setting [15]). Besides, the “inhibition of cell viability (in words)” value in the test on MV4-11 (MLL-AF4) (MV4-11, LTP assay) is recorded as “fully inhibits the cell viability”; with MOLM-13 (MLL-AF9) (MOLM-13, LTP assay), “fully inhibits the cell viability”; in the test with HL-60 (HL-60, LTP assay) it was “fully inhibits the cell viability”; with RS4-11 (MLL-AF4) (RS4;11, LTP assay) it was “fully inhibits the cell viability”.
For `Cc1cn(-c2nccc3[nH]c(-c4ccc(NC(=O)Cc5cc(-c6cccnc6)n[nH]5)cc4)nc23)cn1` [Compound 31, N-[4-[4-(4-methylimidazol-1-yl)-1H-imidazo[4,5-c]pyridin-2-yl]phenyl]-2-(3-pyridin-3-yl-1H-pyrazol-5-yl)acetamide], the pIC50 was less than 5.30 with MV4-11 (MLL-AF4) (setting [1]); less than 5.30 in the test on MV4-11 (MLL-AF4) (setting [2]); 5.58 in the test with MV4-11 (MLL-AF4) (setting [3]); 5.66 with MV4-11 (MLL-AF4) (setting [4]); less than 5.30 with MOLM-13 (MLL-AF9) (setting [5]); less than 5.30 in the test with MOLM-13 (MLL-AF9) (setting [6]). Also, the pIC50 in the test on MOLM-13 (MLL-AF9) (setting [7]), with MOLM-13 (MLL-AF9) (setting [8]), with HL-60 (setting [9]), in the test with HL-60 (setting [10]), with HL-60 (setting [11]) and in the test on HL-60 (setting [12]) was less than 5.30 in each case. Also, the figures for the pIC50 with RS4-11 (MLL-AF4) (setting [13]), in the test with RS4-11 (MLL-AF4) (setting [14]) and in the test on RS4-11 (MLL-AF4) (setting [15]) were less than 5.30, 5.87 and less than 5.30, respectively.
As for `Cc1ccc(-c2cc(CC(=O)Nc3ccc(-c4nc5c(N6CCOCC6)nccc5[nH]4)cc3)[nH]n2)cn1` [Compound 32], the pIC50 in the test with MV4-11 (MLL-AF4) (setting [1]) was less than 5.30; in the test with MV4-11 (MLL-AF4) (setting [2]), 5.31; with MV4-11 (MLL-AF4) (setting [3]), 5.51; with MV4-11 (MLL-AF4) (setting [4]), 5.57; with MOLM-13 (MLL-AF9) (setting [5]) it was less than 5.30; in the test with MOLM-13 (MLL-AF9) (setting [6]), less than 5.30. For the same compound, the pIC50 in the test on MOLM-13 (MLL-AF9) (setting [7]), in the test with MOLM-13 (MLL-AF9) (setting [8]), in the test with HL-60 (setting [9]), with HL-60 (setting [10]), in the test on HL-60 (setting [11]) and with HL-60 (setting [12]) was less than 5.30 in each case. Also, the negative logarithm of the IC50 (pIC50) is less than 5.30 with RS4-11 (MLL-AF4) (setting [13]), 5.56 in the test on RS4-11 (MLL-AF4) (setting [14]) and less than 5.30 in the test with RS4-11 (MLL-AF4) (setting [15]).
Regarding `Cc1nccc2[nH]c(-c3ccc(NC(=O)Cc4cc(-c5cccnc5)n[nH]4)cc3)nc12` [Compound 33], the negative-log IC50 (pIC50) was less than 5.30 with MV4-11 (MLL-AF4) (setting [1]); less than 5.30 in the test with MV4-11 (MLL-AF4) (setting [2]); 5.48 in the test with MV4-11 (MLL-AF4) (setting [3]); 5.63 in the test on MV4-11 (MLL-AF4) (setting [4]); less than 5.30 in the test with MOLM-13 (MLL-AF9) (setting [5]); less than 5.30 in the test on MOLM-13 (MLL-AF9) (setting [6]). Further, the negative-log IC50 (pIC50) in the test with MOLM-13 (MLL-AF9) (setting [7]), in the test on MOLM-13 (MLL-AF9) (setting [8]), in the test with HL-60 (setting [9]), in the test with HL-60 (setting [10]), in the test on HL-60 (setting [11]) and with HL-60 (setting [12]) was less than 5.30 throughout. The pIC50 in the test with RS4-11 (MLL-AF4) (setting [13]), in the test on RS4-11 (MLL-AF4) (setting [14]) and in the test with RS4-11 (MLL-AF4) (setting [15]) was less than 5.30 throughout.

Broadly, the pIC50 is −log10 of the IC50, conventionally taken in molar units.

The values above are taken from patent publication US20240140953A1, “INHIBITORS OF MENIN-MLL INTERACTION” (BIOMEA FUSION, INC., priority 2018, published 2024).
